Where a SMILES comes first, the peptide text is derived from it. The star is where a group is joined. Isovaleryl = CC(C)CC(=O)*; Isobutyryl = CC(C)C(=O)*; Octanoyl = CCCCCCCC(=O)*; Hexanoyl = CCCCCC(=O)*; PhAc = O=C(Cc1ccccc1)*; Bz = O=C(c1ccccc1)*

One experiment has as its target Protein farnesyltransferase (Bos taurus) (UniProt P29702+P49355). Description: In vitro inhibition of bovine Farnesyltransferase at a 1 ug/mL. It is filed as protein-complex assay.
What is called inhibition is the drop in the measured response relative to a control, in per cent. Lower therefore signals a response near the control. Compound `COC(=O)[C@H](Cc1ccc(OC(=O)c2ccccc2)cc1)NC(=O)[C@@H](NC(=O)[C@@H](N)CS)C(C)C` (H-Cys-Val-Tyr(Bz)-OMe) returned an inhibition of 23.4%.

For `COC(=O)[C@H](CO)NC(=O)[C@@H](NC(=O)[C@@H](N)CS)C(C)C` (H-Cys-Val-Ser-OMe), the inhibition was 0%. The same measure, in the same setting: next, `COC(=O)[C@H](COC(=O)c1ccc(C)cc1)NC(=O)[C@@H](NC(=O)[C@@H](N)CS)C(C)C`: 67%; `COC(=O)[C@H](Cc1ccc(OC(=O)CC(C)C)cc1)NC(=O)[C@@H](NC(=O)[C@@H](N)CS)C(C)C` (H-Cys-Val-Tyr(Isovaleryl)-OMe): 74%. In turn, `COC(=O)[C@H](Cc1cccc(OC(=O)/C=C/c2ccccc2)c1)NC(=O)[C@@H](NC(=O)[C@@H](N)CS)C(C)C` showed an inhibition of 17%. For `COC(=O)[C@H](Cc1cccc(OC(=O)C(C)C)c1)NC(=O)[C@@H](NC(=O)[C@@H](N)CS)C(C)C`, the inhibition stood at 30%.

In the case of `COC(=O)[C@H](Cc1ccc(OC(=O)C(C)C)cc1)NC(=O)[C@@H](NC(=O)[C@@H](N)CS)C(C)C` (H-Cys-Val-Tyr(Isobutyryl)-OMe), the inhibition stood at 26.7%. The compound `COC(=O)[C@H](COC(=O)C=C(C)C)NC(=O)[C@@H](NC(=O)[C@@H](N)CS)C(C)C` registered an inhibition of 38.6%. `CCCCCCCC(=O)Oc1ccc(C[C@H](NC(=O)[C@@H](NC(=O)[C@@H](N)CS)C(C)C)C(=O)OC)cc1` (H-Cys-Val-Tyr(Octanoyl)-OMe) came in with an inhibition of 17%. The same measure, in the same setting: next, `COC(=O)[C@H](COC(=O)c1ccc(Cl)cc1)NC(=O)[C@@H](NC(=O)[C@@H](N)CS)C(C)C`: 75%.

On to `CCCCCC(=O)Oc1ccc(C[C@H](NC(=O)[C@@H](NC(=O)[C@@H](N)CS)C(C)C)C(=O)OC)cc1` (H-Cys-Val-Tyr(Hexanoyl)-OMe), for which the inhibition stood at 42%. On the same count and under the same terms, next, `COC(=O)[C@H](Cc1cccc(OC(=O)C=C(C)C)c1)NC(=O)[C@@H](NC(=O)[C@@H](N)CS)C(C)C`: 61%; `COC(=O)[C@H](Cc1ccc(OC(=O)CC(C)CCCC(C)C)cc1)NC(=O)[C@@H](NC(=O)[C@@H](N)CS)C(C)C` (some centres undefined): 10%; `COC(=O)[C@H](COC(=O)c1ccccc1)NC(=O)[C@@H](NC(=O)[C@@H](N)CS)C(C)C` (H-Cys-Val-Ser(Bz)-OMe): 69.3%. Still for that read-out and setting: next, `COC(=O)[C@H](COC(=O)/C=C/c1ccccc1)NC(=O)[C@@H](NC(=O)[C@@H](N)CS)C(C)C`: 16.3%; `COC(=O)[C@H](Cc1cccc(OC(C)=O)c1)NC(=O)[C@@H](NC(=O)[C@@H](N)CS)C(C)C`: 12%; `COC(=O)[C@H](Cc1ccc(OC(=O)Cc2ccccc2)cc1)NC(=O)[C@@H](NC(=O)[C@@H](N)CS)C(C)C` (H-Cys-Val-Tyr(PhAc)-OMe): 32%.

For `COC(=O)[C@H](Cc1cccc(OC(=O)c2ccccc2)c1)NC(=O)[C@@H](NC(=O)[C@@H](N)CS)C(C)C`, the inhibition amounted to 69.3%. For the compound `COC(=O)[C@H](Cc1ccc(OC(=O)C=C(C)C)cc1)NC(=O)[C@@H](NC(=O)[C@@H](N)CS)C(C)C`, the inhibition came out at 79.6%. The same measure, in the same setting: next, `COC(=O)[C@H](Cc1ccc(OC(=O)/C=C/c2ccccc2)cc1)NC(=O)[C@@H](NC(=O)[C@@H](N)CS)C(C)C`: 12.6%; `COC(=O)[C@H](Cc1ccc(OC(C)=O)cc1)NC(=O)[C@@H](NC(=O)[C@@H](N)CS)C(C)C` (H-Cys-Val-Tyr(Ac)-OMe): 6.3%; `COC(=O)[C@H](COC(=O)c1ccc(OC)cc1)NC(=O)[C@@H](NC(=O)[C@@H](N)CS)C(C)C`: 57%.

Another experiment addresses Protein farnesyltransferase (Bos taurus, UniProt P29702+P49355). Description: In vitro inhibition of bovine Farnesyltransferase. It is filed as protein-complex assay.
What is called IC50 is the concentration needed to halve the response being measured. A low value points to higher potency. As for `COC(=O)[C@H](Cc1ccc(OC(=O)c2ccccc2)cc1)NC(=O)[C@@H](NC(=O)[C@@H](N)CS)C(C)C` (H-Cys-Val-Tyr(Bz)-OMe), the half-inhibitory concentration (IC50) worked out at 20 µM. As to `COC(=O)[C@H](COC(=O)c1ccc(C)cc1)NC(=O)[C@@H](NC(=O)[C@@H](N)CS)C(C)C`, the IC50 was 0.92 µM.

In turn, `COC(=O)[C@H](Cc1ccc(OC(=O)CC(C)C)cc1)NC(=O)[C@@H](NC(=O)[C@@H](N)CS)C(C)C` (H-Cys-Val-Tyr(Isovaleryl)-OMe) yielded an IC50 of 0.82 µM. This IC50 and that of the compound before are within 1.5-fold of each other. Regarding `COC(=O)[C@H](Cc1cccc(OC(=O)/C=C/c2ccccc2)c1)NC(=O)[C@@H](NC(=O)[C@@H](N)CS)C(C)C`, the IC50 is 17 µM. The same measure, in the same setting: the result for `COC(=O)[C@H](Cc1cccc(OC(=O)C(C)C)c1)NC(=O)[C@@H](NC(=O)[C@@H](N)CS)C(C)C` reads 10 µM; that for `COC(=O)[C@H](Cc1ccc(OC(=O)C(C)C)cc1)NC(=O)[C@@H](NC(=O)[C@@H](N)CS)C(C)C` (H-Cys-Val-Tyr(Isobutyryl)-OMe), 12 µM.

In the case of `CCCCCCCC(=O)Oc1ccc(C[C@H](NC(=O)[C@@H](NC(=O)[C@@H](N)CS)C(C)C)C(=O)OC)cc1` (H-Cys-Val-Tyr(Octanoyl)-OMe), half-maximal inhibition (IC50) required 22 µM. `COC(=O)[C@H](COC(=O)c1ccc(Cl)cc1)NC(=O)[C@@H](NC(=O)[C@@H](N)CS)C(C)C` gave a 50% inhibitory concentration (IC50) of 0.82 µM. `CCCCCC(=O)Oc1ccc(C[C@H](NC(=O)[C@@H](NC(=O)[C@@H](N)CS)C(C)C)C(=O)OC)cc1` (H-Cys-Val-Tyr(Hexanoyl)-OMe) displayed a concentration for half-maximal inhibition (IC50) of 7.5 µM. `COC(=O)[C@H](Cc1cccc(OC(=O)C=C(C)C)c1)NC(=O)[C@@H](NC(=O)[C@@H](N)CS)C(C)C` registered an IC50 of 8.4 µM. For `COC(=O)[C@H](Cc1ccc(OC(=O)CC(C)CCCC(C)C)cc1)NC(=O)[C@@H](NC(=O)[C@@H](N)CS)C(C)C` (some centres undefined), half-maximal inhibition (IC50) was put at 8.1 µM. The IC50 values of the last two compounds are within 1.5-fold of each other. Same read-out and setting: next, `COC(=O)[C@H](COC(=O)c1ccccc1)NC(=O)[C@@H](NC(=O)[C@@H](N)CS)C(C)C` (H-Cys-Val-Ser(Bz)-OMe): 0.9 µM; `COC(=O)[C@H](CCSC)NC(=O)[C@H](Cc1ccccc1)NC(=O)[C@@H](NC(=O)[C@@H](N)CS)C(C)C`: 5.8 µM. As to `COC(=O)[C@H](Cc1ccc(OC(=O)C=C(C)C)cc1)NC(=O)[C@@H](NC(=O)[C@@H](N)CS)C(C)C`, half-maximal inhibition (IC50) required 0.5 µM. Same read-out and setting: next, `COC(=O)[C@H](Cc1ccc(OC(=O)/C=C/c2ccccc2)cc1)NC(=O)[C@@H](NC(=O)[C@@H](N)CS)C(C)C`: 43 µM.

`COC(=O)[C@H](Cc1ccc(OC(C)=O)cc1)NC(=O)[C@@H](NC(=O)[C@@H](N)CS)C(C)C` (H-Cys-Val-Tyr(Ac)-OMe) returned a 50% inhibitory concentration (IC50) of 48 µM. `COC(=O)[C@H](COC(=O)c1ccc(OC)cc1)NC(=O)[C@@H](NC(=O)[C@@H](N)CS)C(C)C` showed an IC50 of 1.8 µM.

Values taken from ChEMBL document CHEMBL1136022, “Development of tripeptidyl farnesyltransferase inhibitors” (Bioorg Med Chem Lett, 2002).
